According to patent US20070128217A1 (priority 2003, published 2007):

How the values were obtained:
[1] = test system: rabbit serum obtained by immunizing a rabbit with the SARS-CoV strain Frankfurt 1; type: binding; parameters: Binding of a rabbit serum to linear peptides / Binding of a rabbit serum to looped peptides / Rabbit serum linear peptides / Rabbit serum looped peptides / Binding of a rabbit serum to linear peptides of protein N of SARS-CoV Urbani (Rabbit serum linear peptides) / Binding of a rabbit serum to looped/cyclic peptides of protein N of SARS-CoV Urbani (Rabbit serum looped peptides): unit not given here
[2] = test system: antibodies in sera from SARS patients (sera 1a, 1b, 2, 6, 37, 62, London, SARS-yellow, SARS-green); type: binding, human; parameters: Binding of serum 6 to linear peptides of protein X1 of SARS-CoV Urbani / Binding of serum 37 to linear peptides of protein X1 of SARS-CoV Urbani / Binding of serum 6 to looped/cyclic peptide (PEPSCAN-ELISA) / Binding of serum 37 to looped/cyclic peptide (PEPSCAN-ELISA) / Binding of serum 37 to looped/cyclic peptides of protein X1 of SARS-CoV Urbani / Binding of serum 6 to linear peptides of protein X2 / Binding of serum 37 to linear peptides of protein X2 / Binding of serum 37 to looped/cyclic peptides of protein X2 of SARS-CoV Urbani / Binding of serum 6 to linear peptides of protein M of SARS-CoV Urbani / Binding of serum 37 to linear peptides of protein M of SARS-CoV Urbani / Binding of serum 6 to looped/cyclic peptides of protein M of SARS-CoV Urbani / Binding of serum 37 to looped/cyclic peptides of protein M of SARS-CoV Urbani / Binding of serum 6 to linear peptides of protein X3 of SARS-CoV Urbani / Binding of serum 37 to linear peptides of protein X3 of SARS-CoV Urbani / Binding of serum 37 to looped/cyclic peptides of protein X3 of SARS-CoV Urbani / Binding of serum 6 to linear peptides of protein X4 of SARS-CoV Urbani / Binding of serum 37 to linear peptides of protein X4 of SARS-CoV Urbani / Binding of serum 37 to looped/cyclic peptides of protein X4 of SARS-CoV Urbani / Binding of serum 6 to linear peptides of protein X5 of SARS-CoV Urbani / Binding of serum 37 to linear peptides of protein X5 of SARS-CoV Urbani / Binding of serum 37 to looped/cyclic peptides of protein X5 of SARS-CoV Urbani / Binding of serum 6 to linear peptides of protein N of SARS-CoV Urbani / Binding of serum 37 to linear peptides of protein N of SARS-CoV Urbani / Binding of serum 6 to linear peptide (PEPSCAN-ELISA) / Binding of serum 1a to looped/cyclic peptides of protein N of SARS-CoV Urbani / Binding of serum 1b to looped/cyclic peptides of protein N of SARS-CoV Urbani / Binding of serum 2 to looped/cyclic peptides of protein N of SARS-CoV Urbani / Binding of serum 6 to looped/cyclic peptides of protein N of SARS-CoV Urbani / Binding of serum 37 to looped/cyclic peptides of protein N of SARS-CoV Urbani / Binding of serum 62 to looped/cyclic peptides of protein N of SARS-CoV Urbani / Binding of serum London to looped/cyclic peptides of protein N of SARS-CoV Urbani / Binding of serum SARS-green to looped/cyclic peptides of protein N of SARS-CoV Urbani: unit not given here

Sequence: LLIQQWIQFMMSRRR
- Binding of a rabbit serum to linear peptides [1]: 0.5
- Binding of a rabbit serum to looped peptides [1]: 0.6
- Binding of serum 1a to linear peptides of protein X2 [2]: 0.7
- Binding of serum 1a to looped/cyclic peptides of protein X2 of SARS-CoV Urbani [2]: 0.5
- Binding of serum 1b to linear peptides of protein X2 [2]: 0.5
- Binding of serum 1b to looped/cyclic peptides of protein X2 of SARS-CoV Urbani [2]: 0.5
- Binding of serum 2 to linear peptides of protein X2 [2]: 0.5
- Binding of serum 2 to looped/cyclic peptides of protein X2 of SARS-CoV Urbani [2]: 0.7
- Binding of serum 6 to linear peptides of protein X2 [2]: 0.5
- Binding of serum 6 to looped/cyclic peptides of protein X2 of SARS-CoV Urbani [2]: 0.3
- Binding of serum 37 to linear peptides of protein X2 [2]: 0.6
- Binding of serum 37 to looped/cyclic peptides of protein X2 of SARS-CoV Urbani [2]: 0.5
- Binding of serum 62 to linear peptides of protein X2 [2]: 0.6
- Binding of serum 62 to looped/cyclic peptides of protein X2 of SARS-CoV Urbani [2]: 0.7
- Binding of serum London to linear peptides of protein X2 [2]: 0.4
- Binding of serum London to looped/cyclic peptides of protein X2 of SARS-CoV Urbani [2]: 0.2
- Binding of serum SARS-green to linear peptides of protein X2 [2]: 0.5
- Binding of serum SARS-green to looped/cyclic peptides of protein X2 of SARS-CoV Urbani [2]: 0.3
- Binding of serum SARS-yellow to linear peptides of protein X2 [2]: 0.8
- Binding of serum SARS-yellow to looped/cyclic peptides of protein X2 of SARS-CoV Urbani [2]: 0.4

Sequence: QSATKIIALNKRWQL
- Recognition of the peptide by the rabbit serum [1]: recognized
- Binding of serum 1a to linear peptides of protein X1 of SARS-CoV Urbani [2]: 0.8
- Binding of serum 1a to looped/cyclic peptide (PEPSCAN-ELISA) [2]: 0.4
- Binding of serum 1b to linear peptides of protein X1 of SARS-CoV Urbani [2]: 0.7
- Binding of serum 1b to looped/cyclic peptide (PEPSCAN-ELISA) [2]: 0.4
- Binding of serum 2 to linear peptides of protein X1 of SARS-CoV Urbani [2]: 0.7
- Binding of serum 2 to looped/cyclic peptide (PEPSCAN-ELISA) [2]: 0.5
- Binding of serum 6 to linear peptides of protein X1 of SARS-CoV Urbani [2]: 0.7
- Binding of serum 6 to looped/cyclic peptide (PEPSCAN-ELISA) [2]: 0.6
- Binding of serum 37 to linear peptides of protein X1 of SARS-CoV Urbani [2]: 0.7
- Binding of serum 37 to looped/cyclic peptide (PEPSCAN-ELISA) [2]: 0.6
- Binding of serum 62 to linear peptides of protein X1 of SARS-CoV Urbani [2]: 0.8
- Binding of serum 62 to looped/cyclic peptide (PEPSCAN-ELISA) [2]: 0.6
- Binding of serum London to linear peptides of protein X1 of SARS-CoV Urbani [2]: 0.4
- Binding of serum London to looped/cyclic peptide (PEPSCAN-ELISA) [2]: 0.4
- Binding of serum SARS-green to linear peptides of protein X1 of SARS-CoV Urbani [2]: 0.4
- Binding of serum SARS-green to looped/cyclic peptide (PEPSCAN-ELISA) [2]: 0.4
- Binding of serum SARS-yellow to linear peptides of protein X1 of SARS-CoV Urbani [2]: 0.5
- Binding of serum SARS-yellow to looped/cyclic peptide (PEPSCAN-ELISA) [2]: 0.4

Sequence: RTLSYYKLGASQRVG
- Rabbit serum linear peptides [1]: 0.5
- Rabbit serum looped peptides [1]: 1.0
- Binding of serum 1a to linear peptides of protein M of SARS-CoV Urbani [2]: 0.7
- Binding of serum 1a to looped/cyclic peptides of protein M of SARS-CoV Urbani [2]: 0.8
- Binding of serum 1b to linear peptides of protein M of SARS-CoV Urbani [2]: 0.6
- Binding of serum 1b to looped/cyclic peptides of protein M of SARS-CoV Urbani [2]: 0.5
- Binding of serum 2 to linear peptides of protein M of SARS-CoV Urbani [2]: 0.7
- Binding of serum 2 to looped/cyclic peptides of protein M of SARS-CoV Urbani [2]: 0.7
- Binding of serum 6 to linear peptides of protein M of SARS-CoV Urbani [2]: 0.8
- Binding of serum 6 to looped/cyclic peptides of protein M of SARS-CoV Urbani [2]: 1.5
- Binding of serum 37 to linear peptides of protein M of SARS-CoV Urbani [2]: 0.5
- Binding of serum 62 to linear peptides of protein M of SARS-CoV Urbani [2]: 0.5
- Binding of serum London to linear peptides of protein M of SARS-CoV Urbani [2]: 0.3
- Binding of serum London to looped/cyclic peptides of protein M of SARS-CoV Urbani [2]: 1.0
- Binding of serum SARS-green to linear peptides of protein M of SARS-CoV Urbani [2]: 0.5
- Binding of serum SARS-green to looped/cyclic peptides of protein M of SARS-CoV Urbani [2]: 0.4
- Binding of serum SARS-yellow to linear peptides of protein M of SARS-CoV Urbani [2]: 0.4
- Binding of serum SARS-yellow to looped/cyclic peptides of protein M of SARS-CoV Urbani [2]: 0.8
